Experimental data reported in ChEMBL document CHEMBL4373736, “Synthesis and biological evaluation of panaxatriol derivatives against myocardial ischemia/reperfusion injury in the rat” (Eur J Med Chem, 2020).

Experiments:
Cardiac muscle cell [1] = assay: Cytoprotective activity against OGD/reperfusion induced injury in Sprague-Dawley rat cardiomyocytes assessed as effect on cell viability at 0.1 uM pretreated for 24 hrs followed by OGD for 2 hrs and subsequent reperfusion for 24 hrs (reference value: 43.9 to 45.4 +/- 1.1 %); type: functional
Cardiac muscle cell [2] = assay: Cytoprotective activity against OGD/reperfusion induced injury in Sprague-Dawley rat cardiomyocytes assessed as effect on cell viability at 1 uM pretreated for 24 hrs followed by OGD for 2 hrs and subsequent reperfusion for 24 hrs (reference value: 43.9 to 45.4 +/- 1.1 %); type: functional
Cardiac muscle cell [3] = assay: Cytotoxicity against Sprague-Dawley rat cardiomyocytes assessed as inhibition of cell growth at 10 uM treated for 50 hrs by MTT assay; type: cell-based
Cardiac muscle cell [4] = assay: Cytoprotective activity against OGD/reperfusion induced injury in Sprague-Dawley rat cardiomyocytes assessed as effect on cell viability at 10 uM pretreated for 24 hrs followed by OGD for 2 hrs and subsequent reperfusion for 24 hrs (reference value: 43.9 to 45.4 +/- 1.1 %); type: functional

| Structure (SMILES) | Activity (Cardiac muscle cell [1]) | Activity (Cardiac muscle cell [2]) | Activity (Cardiac muscle cell [3]) | Activity (Cardiac muscle cell [4]) |
| --- | --- | --- | --- | --- |
| CC1(C)CCC[C@](C)([C@H]2CC[C@]3(C)[C@@H]2[C@H](O)C[C@@H]2[C@@]4(C)Cc5c(n[nH]c5C(F)(F)F)C(C)(C)[C@@H]4[C@H](O)C[C@]23C)O1 | 60.2% | 67.6% | Non-Toxic | 76.4% |
| CC1(C)CCC[C@](C)([C@H]2CC[C@]3(C)[C@@H]2[C@H](O)C[C@@H]2[C@@]4(C)Cc5c(C(=O)O)nn(-c6ccccc6)c5C(C)(C)[C@@H]4[C@H](O)C[C@]23C)O1 | 51.2% | 56.2% | Non-Toxic | 63.1% |
| CC1(C)CCC[C@](C)([C@H]2CC[C@]3(C)[C@@H]2[C@H](O)C[C@@H]2[C@@]4(C)Cc5sc(-c6cccnc6)nc5C(C)(C)[C@@H]4C(=O)C[C@]23C)O1 | 46.9% | 51.3% | Non-Toxic | 57.2% |
| CC1(C)CCC[C@](C)([C@H]2CC[C@]3(C)[C@@H]2[C@H](O)C[C@@H]2[C@@]4(C)Cc5nccnc5C(C)(C)[C@@H]4C(=O)C[C@]23C)O1 | 56.4% | 64% | Non-Toxic | 71.5% |
| CC1(C)CCC[C@](C)([C@H]2CC[C@]3(C)[C@@H]2[C@H](O)C[C@@H]2[C@@]4(C)Cc5sc(N)nc5C(C)(C)[C@@H]4C(=O)C[C@]23C)O1 | 60.2% | 70.2% | Non-Toxic | 77.7% |
| CCOC(=O)c1nc2c(s1)C[C@]1(C)[C@H]3C[C@@H](O)[C@@H]4[C@@H]([C@@]5(C)CCCC(C)(C)O5)CC[C@@]4(C)[C@]3(C)CC(=O)[C@H]1C2(C)C | 59.1% | 75.3% | Non-Toxic | 86.6% |
| CC1(C)CCC[C@](C)([C@H]2CC[C@]3(C)[C@@H]2[C@H](O)C[C@@H]2[C@@]4(C)Cc5c([nH]c6ccc(S(N)(=O)=O)cc56)C(C)(C)[C@@H]4C(=O)C[C@]23C)O1 | 55.1% | 61.5% | Non-Toxic | 66.3% |
| Cc1nc2c(s1)C[C@]1(C)[C@H]3C[C@@H](O)[C@@H]4[C@@H]([C@@]5(C)CCCC(C)(C)O5)CC[C@@]4(C)[C@]3(C)CC(=O)[C@H]1C2(C)C | 48.7% | 52.1% | Non-Toxic | 58.5% |
| CC(C)c1nc2c(s1)C[C@]1(C)[C@H]3C[C@@H](O)[C@@H]4[C@@H]([C@@]5(C)CCCC(C)(C)O5)CC[C@@]4(C)[C@]3(C)CC(=O)[C@H]1C2(C)C | 50.6% | 59.5% | Non-Toxic | 66% |
| CC1(C)CCC[C@](C)([C@H]2CC[C@]3(C)[C@@H]2[C@H](O)C[C@@H]2[C@@]4(C)Cc5c(CO)noc5C(C)(C)[C@@H]4[C@H](O)C[C@]23C)O1 | 55.1% | 60.9% | Non-Toxic | 66.8% |
| CC1(C)CCC[C@](C)([C@H]2CC[C@]3(C)[C@@H]2[C@H](O)C[C@@H]2[C@@]4(C)Cc5cnn(-c6ccccc6)c5C(C)(C)[C@@H]4[C@H](O)C[C@]23C)O1 | 50.8% | 57.3% | Non-Toxic | 62.5% |
| CC1(C)CCC[C@](C)([C@H]2CC[C@]3(C)[C@@H]2[C@H](O)C[C@@H]2[C@@]4(C)Cc5sc(N)nc5C(C)(C)[C@@H]4[C@@H](O)C[C@]23C)O1 | 52.4% | 57.6% | Non-Toxic | 62.4% |
| CCOC(=O)c1nn(-c2ccccc2)c2c1C[C@]1(C)[C@H]3C[C@@H](O)[C@@H]4[C@@H]([C@@]5(C)CCCC(C)(C)O5)CC[C@@]4(C)[C@]3(C)C[C@@H](O)[C@H]1C2(C)C | 51.4% | 56.8% | Non-Toxic | 63.6% |
| CC1(C)CCC[C@](C)([C@H]2CC[C@]3(C)[C@@H]2[C@H](O)C[C@@H]2[C@@]4(C)Cc5c([nH]c6c(F)cccc56)C(C)(C)[C@@H]4C(=O)C[C@]23C)O1 | 53.5% | 58% | Non-Toxic | 62.6% |
| CC1(C)CCC[C@](C)([C@H]2CC[C@]3(C)[C@@H]2[C@H](O)C[C@@H]2[C@@]4(C)Cc5c[nH]nc5C(C)(C)[C@@H]4[C@H](O)C[C@]23C)O1 | 48.6% | 55.9% | Non-Toxic | 61.7% |
| CC1(C)CCC[C@](C)([C@H]2CC[C@]3(C)[C@@H]2[C@H](O)C[C@@H]2[C@@]4(C)Cc5sc(Nc6ccccc6)nc5C(C)(C)[C@@H]4C(=O)C[C@]23C)O1 | 49.7% | 56% | Non-Toxic | 63% |
| CC1(C)CCC[C@](C)([C@H]2CC[C@]3(C)[C@@H]2[C@H](O)C[C@@H]2[C@@]4(C)Cc5c([nH]c6c(Cl)cc(F)cc56)C(C)(C)[C@@H]4C(=O)C[C@]23C)O1 | 52.9% | 57.1% | Non-Toxic | 62.1% |
| CC1(C)CCC[C@](C)([C@H]2CC[C@]3(C)[C@@H]2[C@H](O)C[C@@H]2[C@@]4(C)Cc5c([nH]c6ccccc56)C(C)(C)[C@@H]4C(=O)C[C@]23C)O1 | 56.9% | 64.3% | Non-Toxic | 71.1% |
| CC1(C)CCC[C@](C)([C@H]2CC[C@]3(C)[C@@H]2[C@H](O)C[C@@H]2[C@@]4(C)Cc5c([nH]c6ccc(OC(F)(F)F)cc56)C(C)(C)[C@@H]4C(=O)C[C@]23C)O1 | 64.4% | 70.8% | Non-Toxic | 78.4% |
| CNc1nc2c(s1)C[C@]1(C)[C@H]3C[C@@H](O)[C@@H]4[C@@H]([C@@]5(C)CCCC(C)(C)O5)CC[C@@]4(C)[C@]3(C)CC(=O)[C@H]1C2(C)C | 47% | 52.7% | Non-Toxic | 58.8% |
| CC1(C)CCC[C@](C)([C@H]2CC[C@]3(C)[C@@H]2[C@H](O)C[C@@H]2[C@@]4(C)Cc5c([nH]c6ccc(F)cc56)C(C)(C)[C@@H]4C(=O)C[C@]23C)O1 | 54.6% | 58.8% | Non-Toxic | 63.6% |
| Cc1ccc2[nH]c3c(c2c1)C[C@]1(C)[C@H]2C[C@@H](O)[C@@H]4[C@@H]([C@@]5(C)CCCC(C)(C)O5)CC[C@@]4(C)[C@]2(C)CC(=O)[C@H]1C3(C)C | 58.9% | 66.4% | Non-Toxic | 73.8% |
| CC1(C)CCC[C@](C)([C@H]2CC[C@]3(C)[C@@H]2[C@H](O)C[C@@H]2[C@@]4(C)Cc5sc(-c6ccc(Cl)cc6)nc5C(C)(C)[C@@H]4C(=O)C[C@]23C)O1 | 49.5% | 54.8% | Non-Toxic | 60.3% |
